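1) Cells in 96-well plates. 2) Compound, 48 h, 5 concentrations. 3) Linear interpolation between surrounding doses. 4) Unreached endpoint = highest concentration. GI50 marks 50% less growth. TGI denotes the concentration required for complete inhibition of growth.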
What was measured:
Experiment in all cases: NCI anticancer screen, dose series, 48 h
NCI-H226 lung = system: NCI-H226 lung
SK-MEL-28 melanoma = system: SK-MEL-28 melanoma
HL-60(TB) leukemia = system: HL-60(TB) leukemia
NCI/ADR-RES ovarian = system: NCI/ADR-RES ovarian
SK-MEL-2 melanoma = system: SK-MEL-2 melanoma
NCI-H522 lung = system: NCI-H522 lung
M14 melanoma = system: M14 melanoma
SNB-19 CNS = system: SNB-19 CNS
K-562 leukemia = system: K-562 leukemia
UO-31 renal = system: UO-31 renal

CCCCCCCOc1c(OC)cc(C2CC(=O)Nc3c2c(C)nn3-c2nc3ccccc3[nH]2)cc1OC (configuration not stated)
GI50 (NCI-H226 lung): 2.1 µM
TGI (NCI-H226 lung): 4.56 µM
GI50 (SK-MEL-28 melanoma): 2.77 µM
TGI (SK-MEL-28 melanoma): 8.61 µM
GI50 (HL-60(TB) leukemia): 2.88 µM
TGI (HL-60(TB) leukemia): 9.03 µM
GI50 (NCI/ADR-RES ovarian): 3.83 µM
TGI (NCI/ADR-RES ovarian): > 100 µM
GI50 (SK-MEL-2 melanoma): 3.28 µM
TGI (SK-MEL-2 melanoma): 12.6 µM
GI50 (NCI-H522 lung): 2.79 µM
TGI (NCI-H522 lung): 10.3 µM
GI50 (M14 melanoma): 4.01 µM
TGI (M14 melanoma): > 100 µM
GI50 (SNB-19 CNS): 3.93 µM
TGI (SNB-19 CNS): > 100 µM
GI50 (K-562 leukemia): 4.23 µM
TGI (K-562 leukemia): > 100 µM
GI50 (UO-31 renal): 1.63 µM
TGI (UO-31 renal): 4.82 µM

Cc1ccc2c(c1)C(=O)c1c-2n(CCCBr)c(=O)c2cc([N+](=O)[O-])ccc12
GI50 (NCI-H226 lung): 96.9 µM
TGI (NCI-H226 lung): > 100 µM
GI50 (SK-MEL-28 melanoma): > 100 µM
TGI (SK-MEL-28 melanoma): > 100 µM
GI50 (HL-60(TB) leukemia): 18.3 µM
TGI (HL-60(TB) leukemia): > 100 µM
GI50 (NCI/ADR-RES ovarian): 54.7 µM
TGI (NCI/ADR-RES ovarian): > 100 µM
GI50 (SK-MEL-2 melanoma): > 100 µM
TGI (SK-MEL-2 melanoma): > 100 µM
GI50 (NCI-H522 lung): 12.2 µM
TGI (NCI-H522 lung): 96.2 µM
GI50 (M14 melanoma): 45.8 µM
TGI (M14 melanoma): > 100 µM
GI50 (SNB-19 CNS): 47.9 µM
TGI (SNB-19 CNS): > 100 µM
GI50 (K-562 leukemia): 32.1 µM
TGI (K-562 leukemia): > 100 µM
GI50 (UO-31 renal): 27.5 µM
TGI (UO-31 renal): > 100 µM

O=C(COc1cccc(/C=C2\COc3ccc(Cl)cc3C2=O)c1)c1ccc(Cl)cc1
GI50 (NCI-H226 lung): 14.1 µM
TGI (NCI-H226 lung): 31.2 µM
GI50 (SK-MEL-28 melanoma): 18.3 µM
TGI (SK-MEL-28 melanoma): 32.2 µM
GI50 (HL-60(TB) leukemia): 8.99 µM
TGI (HL-60(TB) leukemia): 31.5 µM
GI50 (NCI/ADR-RES ovarian): 20.5 µM
TGI (NCI/ADR-RES ovarian): 69.6 µM
GI50 (SK-MEL-2 melanoma): 7.4 µM
TGI (SK-MEL-2 melanoma): 21.1 µM
GI50 (NCI-H522 lung): 11.7 µM
TGI (NCI-H522 lung): 27.2 µM
GI50 (M14 melanoma): 11.6 µM
TGI (M14 melanoma): 24.4 µM
GI50 (SNB-19 CNS): 14.5 µM
TGI (SNB-19 CNS): 27.7 µM
GI50 (K-562 leukemia): 2.67 µM
TGI (K-562 leukemia): > 100 µM
GI50 (UO-31 renal): 5.13 µM
TGI (UO-31 renal): 19.4 µM

O=C(OCCBr)c1ccc(Cl)c([N+](=O)[O-])c1
GI50 (NCI-H226 lung): 17.7 µM
TGI (NCI-H226 lung): 37.6 µM
GI50 (SK-MEL-28 melanoma): 2.51 µM
TGI (SK-MEL-28 melanoma): 5.42 µM
GI50 (HL-60(TB) leukemia): 15.7 µM
TGI (HL-60(TB) leukemia): 42.6 µM
GI50 (NCI/ADR-RES ovarian): 21.4 µM
TGI (NCI/ADR-RES ovarian): 53.1 µM
GI50 (SK-MEL-2 melanoma): 16.3 µM
TGI (SK-MEL-2 melanoma): 35.1 µM
GI50 (NCI-H522 lung): 0.957 µM
TGI (NCI-H522 lung): 3.04 µM
GI50 (M14 melanoma): 16.4 µM
TGI (M14 melanoma): 36.6 µM
GI50 (SNB-19 CNS): 1.87 µM
TGI (SNB-19 CNS): 3.74 µM
GI50 (K-562 leukemia): 3.15 µM
TGI (K-562 leukemia): 13.2 µM
GI50 (UO-31 renal): 2.72 µM
TGI (UO-31 renal): 7.85 µM

C/C=C/[C@@H]1OC(=O)C2=C[C@@H](O)[C@@H](/C=C/C)O[C@H]21
GI50 (NCI-H226 lung): 6.17 µM
TGI (NCI-H226 lung): 13.9 µM
GI50 (SK-MEL-28 melanoma): 6.38 µM
TGI (SK-MEL-28 melanoma): 12.6 µM
GI50 (HL-60(TB) leukemia): 7.47 µM
TGI (HL-60(TB) leukemia): > 100 µM
GI50 (NCI/ADR-RES ovarian): 19.2 µM
TGI (NCI/ADR-RES ovarian): > 56.2 µM
GI50 (SK-MEL-2 melanoma): 23.5 µM
TGI (SK-MEL-2 melanoma): > 58.6 µM
GI50 (NCI-H522 lung): 1.93 µM
GI50 (M14 melanoma): 3.23 µM
TGI (M14 melanoma): 8.12 µM
GI50 (SNB-19 CNS): 16.6 µM
TGI (SNB-19 CNS): 33.8 µM
GI50 (K-562 leukemia): 1.84 µM
GI50 (UO-31 renal): 3.05 µM
TGI (UO-31 renal): > 35.7 µM

COc1cc(C2CC(c3ccc(N(C)C)cc3)=NN2C(C)=O)cc(OC)c1OC (configuration not stated)
GI50 (NCI-H226 lung): 6.46 µM
TGI (NCI-H226 lung): > 100 µM
GI50 (SK-MEL-28 melanoma): 21 µM
TGI (SK-MEL-28 melanoma): > 100 µM
GI50 (HL-60(TB) leukemia): 7.94 µM
TGI (HL-60(TB) leukemia): > 25.1 µM
GI50 (NCI/ADR-RES ovarian): 3.78 µM
TGI (NCI/ADR-RES ovarian): > 100 µM
GI50 (SK-MEL-2 melanoma): 12.9 µM
TGI (SK-MEL-2 melanoma): > 100 µM
GI50 (NCI-H522 lung): 1.95 µM
TGI (NCI-H522 lung): > 27.1 µM
GI50 (M14 melanoma): 1.39 µM
TGI (M14 melanoma): > 100 µM
TGI (SNB-19 CNS): > 100 µM
GI50 (K-562 leukemia): 1.74 µM
TGI (K-562 leukemia): > 100 µM
GI50 (UO-31 renal): 3.59 µM
TGI (UO-31 renal): > 100 µM

CN(C(=O)c1ccncc1)c1ccccc1
TGI (NCI-H226 lung): > 100 µM
TGI (SK-MEL-28 melanoma): > 100 µM
TGI (HL-60(TB) leukemia): > 100 µM
TGI (NCI/ADR-RES ovarian): > 100 µM
TGI (SK-MEL-2 melanoma): > 100 µM
TGI (NCI-H522 lung): > 100 µM
TGI (M14 melanoma): > 100 µM
TGI (SNB-19 CNS): > 100 µM
TGI (K-562 leukemia): > 100 µM
TGI (UO-31 renal): > 100 µM

Cn1ccnc1C(=O)/C=C/c1ccc(CC(=O)Nc2ccc(C(F)(F)F)cc2)cc1
GI50 (NCI-H226 lung): 4.19 µM
TGI (NCI-H226 lung): 16 µM
GI50 (SK-MEL-28 melanoma): 2.92 µM
TGI (SK-MEL-28 melanoma): 6.25 µM
GI50 (HL-60(TB) leukemia): 1.8 µM
TGI (HL-60(TB) leukemia): 9.82 µM
GI50 (NCI/ADR-RES ovarian): 4.32 µM
TGI (NCI/ADR-RES ovarian): 10.9 µM
GI50 (SK-MEL-2 melanoma): 4.95 µM
TGI (SK-MEL-2 melanoma): 11.3 µM
GI50 (NCI-H522 lung): 3.35 µM
TGI (NCI-H522 lung): 6.39 µM
GI50 (M14 melanoma): 3.72 µM
TGI (M14 melanoma): 8.3 µM
GI50 (SNB-19 CNS): 2.46 µM
TGI (SNB-19 CNS): 5.09 µM
GI50 (K-562 leukemia): 0.614 µM
TGI (K-562 leukemia): > 16.7 µM
GI50 (UO-31 renal): 2.51 µM
TGI (UO-31 renal): 4.76 µM

Nc1cc(N)c2nc(-c3ccccc3)c(NCc3ccc(F)cc3)nc2c1
GI50 (NCI-H226 lung): 22.4 µM
TGI (NCI-H226 lung): 47.7 µM
GI50 (SK-MEL-28 melanoma): 1.9 µM
TGI (SK-MEL-28 melanoma): 3.77 µM
GI50 (HL-60(TB) leukemia): 3.85 µM
TGI (HL-60(TB) leukemia): > 100 µM
GI50 (NCI/ADR-RES ovarian): 2.46 µM
TGI (NCI/ADR-RES ovarian): 5.76 µM
GI50 (SK-MEL-2 melanoma): 5.21 µM
TGI (SK-MEL-2 melanoma): > 100 µM
GI50 (NCI-H522 lung): > 100 µM
TGI (NCI-H522 lung): > 100 µM
GI50 (M14 melanoma): 23.7 µM
TGI (M14 melanoma): 55.9 µM
GI50 (SNB-19 CNS): 6.68 µM
TGI (SNB-19 CNS): 20.1 µM
GI50 (K-562 leukemia): 4.39 µM
TGI (K-562 leukemia): > 100 µM
GI50 (UO-31 renal): 3.81 µM
TGI (UO-31 renal): > 100 µM

CS(=O)(=O)Nc1ccc(N=Cc2c(O)[nH]c3ccccc23)cc1
GI50 (NCI-H226 lung): > 25 µM
TGI (NCI-H226 lung): > 25 µM
GI50 (SK-MEL-28 melanoma): > 25 µM
TGI (SK-MEL-28 melanoma): > 25 µM
GI50 (HL-60(TB) leukemia): > 25 µM
TGI (HL-60(TB) leukemia): > 25 µM
GI50 (NCI/ADR-RES ovarian): > 25 µM
TGI (NCI/ADR-RES ovarian): > 25 µM
GI50 (SK-MEL-2 melanoma): > 25 µM
TGI (SK-MEL-2 melanoma): > 25 µM
GI50 (NCI-H522 lung): > 25 µM
TGI (NCI-H522 lung): > 25 µM
GI50 (M14 melanoma): > 25 µM
TGI (M14 melanoma): > 25 µM
GI50 (SNB-19 CNS): > 25 µM
TGI (SNB-19 CNS): > 25 µM
GI50 (K-562 leukemia): > 25 µM
TGI (K-562 leukemia): > 25 µM
GI50 (UO-31 renal): > 8.56 µM
TGI (UO-31 renal): > 25 µM

CN(C)CC1CCCCCC(CN(C)C)C1=O (configuration not stated)
GI50 (NCI-H226 lung): 9.98 µM
TGI (NCI-H226 lung): 33.3 µM
GI50 (SK-MEL-28 melanoma): 3.65 µM
TGI (SK-MEL-28 melanoma): 10.5 µM
GI50 (HL-60(TB) leukemia): 2.24 µM
TGI (HL-60(TB) leukemia): 8.57 µM
GI50 (NCI/ADR-RES ovarian): 3.39 µM
TGI (NCI/ADR-RES ovarian): 14.3 µM
GI50 (SK-MEL-2 melanoma): 3.82 µM
TGI (SK-MEL-2 melanoma): 13.4 µM
GI50 (NCI-H522 lung): 0.145 µM
TGI (NCI-H522 lung): 0.392 µM
GI50 (M14 melanoma): 1.19 µM
TGI (M14 melanoma): 11.9 µM
GI50 (SNB-19 CNS): 41.7 µM
TGI (SNB-19 CNS): > 100 µM
GI50 (K-562 leukemia): 1.44 µM
TGI (K-562 leukemia): 7.07 µM
GI50 (UO-31 renal): 1.77 µM
TGI (UO-31 renal): 4.5 µM

From PubChem BioAssay (NCI)
